Earlier results on six compounds are cited in patent US7709454B2, “Methods and compositions for inhibiting tumorigenesis” (New York University, priority 1997, dated 2010).

Series [1] deals with A/J mice lung adenomas. The settings on record: 50 mg/kg/d; cited from earlier work.
Series [2] has as its system Nude Harlan Sprague-Dawley Mice/lung (A-549, Calu-1) tumors. The conditions noted are these: cited from earlier work.
The test system of series [3] is Glioma cell lines. The settings on record: cited from earlier work.
In series [4] the test system is Rat-1 cells. The conditions noted are these: cited from earlier work.
Series [5] concerns SCID mice/melanoma (518A2, 607B). The conditions noted are these: cited from earlier work.
Series [6] relates to Human melanoma cell lines. The settings on record: cited from earlier work.
Series [7] relates to MMTV-TGFa/neu transgenic Mice/mammary tumors. The conditions noted are these: 40 mg/kg/d; cited from earlier work.
Series [8] has as its system MMTV-N-RAS^N transgenic Mice/lymphoid and mammary tumors. The settings on record: 40 mg/kg/d; cited from earlier work.
For series [9] the following is noted: cell type not given; cited from earlier work.
The subject of series [10] is MMTV-v-H-RAS transgenic mice/Mammary, salivary Carcinoma. The settings on record: cited from earlier work.
The test system of series [11] is Athymic mice/colon (DLD-1), H-Ras and K-Ras Fibroblast tumors. The settings on record: 10, 50 mg/kg/d; cited from earlier work.
Series [12] relates to Nude mice/lung (HTB177). The settings on record: 40 mg/kg/d; cited from earlier work.
The subject of series [13] is Pancreas (AsPC-1). The settings on record: 40 mg/kg/d; cited from earlier work.
Series [14] has as its system Nude mice/lung (A549). The settings on record: 40 mg/kg/d; cited from earlier work.
Series [15] relates to Nude mice/colon (DLD-1, HCT 116). The conditions noted are these: 2, 5, 10, 40 mg/kg/d; cited from earlier work.
Series [16] has as its system Prostate (DU-145). The settings on record: 40 mg/kg/d; cited from earlier work.
The subject of series [17] is Colon (HCT116). The conditions noted are these: 40 mg/kg/d; cited from earlier work.
Series [18] concerns NIH3T3. The conditions noted are these: 2, 5, 10, 40 mg/kg/d; cited from earlier work.
In series [19] the test system is Urinary bladder (EJ). The conditions noted are these: 40 mg/kg/d; cited from earlier work.
Series [20] has as its system Nude mice/colon (DLD-1). The settings on record: 40 mg/kg/d; cited from earlier work.
For series [21], the system named is Pancreas (Hs 700T). The conditions noted are these: 40 mg/kg/d; cited from earlier work.
For series [22], the system named is Pancreas (HPAF-11). The settings on record: 40 mg/kg/d; cited from earlier work.
In series [23] the test system is Wap-H-RAS transgenic Mice/mammary, salivary tumors. The conditions noted are these: 2, 5, 10, 40 mg/kg/d; cited from earlier work.
In series [24] the test system is Pancreas (MIA PaCa-2). The conditions noted are these: cited from earlier work.

Like-named read-outs stand apart in the source and are kept apart here.

Consider `CSCC[C@H](NC(=O)c1ccc(NC[C@@H](N)CS)cc1-c1ccccc1)C(=O)O` [FTI-276], for which the “GROWTH INHIBITION” value in series [1] is listed as 58%; in series [2] (70 mg/kg/d), 70%-94%; in series [2] (10, 50, 100 mg/kg/d), 75%.

In the case of `COC(=O)[C@H](CCSC)NC(=O)c1ccc(NC[C@@H](N)CS)cc1-c1ccccc1` [FTI-277], in series [2] (50 mg/kg/d, lung (A-549, Calu-1) tumors, NIH3T3), the “GROWTH INHIBITION” value was 80%. Besides, the IC50 in series [3] is 2 to 15.5 µM.

With `CC(C)=CCC/C(C)=C/CC/C(C)=C/CSc1ccccc1C(=O)O` [FTS, S-farnesylthiosalicyclic acid], the 50% inhibitory concentration (IC50) is 30 to 40 µM in series [4] and 100 µM in [6]. Moreover, the “GROWTH INHIBITION” value in [5] (5 mg/kg/d) is given as 82-90% of controls. Besides, in [5] (mouse, in vivo), the “growth of human melanoma in SCID mice” value is “significant reduction in the growth”.

As to `CC[C@H](C)[C@@H](CO[C@@H](Cc1ccccc1)C(=O)N[C@@H](CCS(C)(=O)=O)C(=O)OC(C)C)NC[C@@H](N)CS` [L-744,832], the “tumor mean growth rate in the presence of the Ftase inhibitor” value in [7] is reported as −7.4 vs 19 mm3/day; in series [8], −0.7 vs 28.3 mm3/day; in series [10] (10-40 mg/kg/d), −5.4 vs 16.7 mm3/day. The IC50 in [9] is 1 to 10 µM. The tumor response result in series [10] (mammary and salivary carcinomas in MMTV-v-Ha-Ras mice) is given as “induced regression”.

For the compound `O=C(Cc1cc[n+]([O-])cc1)N1CCN(C2c3ccc(Cl)cc3CCc3cc(Br)cnc32)CC1` (centres unmarked) [SCH59228], the “GROWTH INHIBITION” value in series [11] is given as over 90%.

For the compound `NC(=O)N1CCC(CC(=O)N2CCC([C@H]3c4ncc(Br)cc4CCc4cc(Cl)cc(Br)c43)CC2)CC1` [SCH66336], the “GROWTH INHIBITION” value in series [12] is on record as 83%; in series [13], 72%; in series [14], 70%; in [15], 76%; in [16], 86%; in series [17], 84%. Moreover, the “GROWTH INHIBITION” value in [18] is 100%; in series [19], 100%; in series [20], 76%; in [21] it was 67%; in series [22] it was 67%; in series [23], 67%-86%. For the same compound, the “GROWTH INHIBITION” value in series [24] (40 mg/kg/d, MIA PaCa-2) was 78%; in series [24] (2, 5, 10, 40 mg/kg/d), 75%.
